System: A549 cells
Assay: Matrigel invasion assay (modified Boyden chamber), A549 cells
Format: cell-based
Conditions: 100 to 800 ng/ml
Protocol: The in vitro invasiveness of H1299 or A549 cells in the presence of various concentrations of NRC compounds (as determined by MTT assay) was assessed using a modified Boyden chamber assay. Cells were treated with these compounds for 48 h. 1×10^6 cells were suspended in 600 μl of serum-free medium supplemented with 0.2% BSA and placed in the upper compartment of the transwell chambers (Corning Costar Fischer Scientific Cat #07-200-158, Pittsburgh Pa.) coated with Matrigel (0.7 mg/ml). The lower compartment of the chamber was filled with 200 μl of serum-medium and the cells were allowed to migrate for 24 h. After incubation, the cells were fixed and stained with Hema-3 and quantified as previously described (Mohanam, et al. 1993). The migrated cells were quantified as percent invasion.
Matrigel invasion was performed as described in materials and methods. […] Using H1299 cells similar retardation patterns of invasion was observed.

Compound: C#Cc1cccc(Nc2ncnc3cc(OCCOC)c(OCCOC)cc23)c1 [Erlotinib]
- invasiveness: decreased invasiveness in a dose dependent manner

— patent publication US8080558B2, “4-(tetrazol-5-yl)-quinazoline derivatives as anti-cancer agent” (Natco Pharma Limited, priority 2007, dated 2011)
